Holding throughout (type): cell-based
One assay deals with HTT mRNA. In words: Splicing assay (RT-qPCR) monitoring HTT splice variants, canonical (CJ) and alternative (AJ) junction. The conditions noted are these: 50% response, A673 or K562 cell line, 24 hours; for IC50: decrease in CJ mRNA; for AC50: increase in AJ mRNA. An outline of the steps:
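A673 or K562 cells were treated 24 h with an 11-point 3-fold dilution series (top 10 uM, ≤0.25% DMSO) at 37 °C. HTT canonical- and alternative-junction mRNAs were quantified in lysates by one-step RT-qPCR. Values were normalized to PPIA (A673) or GAPDH/GUSB (K562).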
(In general: In qPCR the cycle at which signal appears reflects the starting amount.)

A further assay concerns HTT CJ mRNA. Briefly: Gene panel canonical junction qPCR assay, HTT. The note with it: Table 6, decrease in CJ mRNA, read-out: HTT IC50 (decrease in CJ mRNA levels). In outline:
(§1)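 A673 or K562 cells treated 24 h at 37° C with 11-point 3-fold dilutions, top 10 uM, DMSO ≤0.25%. CJ mRNA quantified by RT-qPCR with exon-junction-spanning probeset, ΔΔCt vs housekeeping gene (GAPDH, GUSB or PPIA) and DMSO control. IC50 from 4-parameter fit of percentage CJ decrease.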

For the next assay, the system named is SMN2 CJ mRNA. In words: Gene panel canonical junction qPCR assay, SMN2. The conditions noted are these: Table 6, decrease in CJ mRNA, read-out: SMN2 IC50 (decrease in CJ mRNA levels). An outline of the steps:
as §1

The test system of a further assay is Target C CJ mRNA. Briefly: Gene panel canonical junction qPCR assay, Target C. The conditions noted are these: Table 6, decrease in CJ mRNA, read-out: Target C IC50 (decrease in CJ mRNA levels). In outline: as §1

Each structure is given as a SMILES string.

Usually IC50 stands for the concentration that inhibits the measured activity by half. Broadly, the AC50 is the midpoint of the concentration-response curve, whichever way the signal moves. Higher therefore signals activity only at high concentration.

As for `C[C@@H]1C[C@@H](c2cc3sc(-c4cc(F)c5nn(C)cc5c4)nc3s2)CCN1` [Compound 193, 7-fluoro-2-methyl-5-[5-(2-methylpiperidin-4-yl)thieno[2,3-d][1,3]thiazol-2-yl]indazole], the IC50 with HTT mRNA, in the assay on HTT CJ mRNA, in the assay with SMN2 CJ mRNA and in the assay with Target C CJ mRNA was below 100 nM in each case. Also, the AC50 in the assay with HTT mRNA was below 100 nM.

In the case of `Cc1cn2nc(-c3cc4cn(C5CCNCC5)nc4s3)cc(C)c2n1` [Compound 162, 4-(5-{2,8-dimethylimidazo[1,2-b]pyridazin-6-yl}thieno[2,3-c]pyrazol-2-yl)piperidine], the IC50 in the assay with HTT mRNA is below 100 nM; with HTT CJ mRNA, below 100 nM; with SMN2 CJ mRNA it was below 100 nM; in the assay on Target C CJ mRNA, 100 to 1000 nM. The compound also returned an AC50 in the assay with HTT mRNA below 100 nM.

In the case of `Cc1cn2nc(-n3cc4sc(C5CCNCC5)cc4n3)cc(C)c2n1` [Compound 101, 4-(2-[2,8-dimethylimidazo[1,2-b]pyridazin-6-yl]thieno[3,2-c]pyrazol-5-yl)piperidine], the IC50 in the assay with HTT mRNA, with HTT CJ mRNA, in the assay on SMN2 CJ mRNA and in the assay on Target C CJ mRNA was below 100 nM throughout. The compound also returned an AC50 with HTT mRNA of 100 to 1000 nM.

As for `Cn1cc2cc(-c3nc4sc(C5CCNCC5)cn4n3)cc(F)c2n1` [Compound 103, 7-fluoro-2-methyl-5-[5-(piperidin-4-yl)-[1,2,4]triazolo[3,2-b][1,3]thiazol-2-yl]indazole], the IC50 in the assay on HTT mRNA, in the assay with HTT CJ mRNA, with SMN2 CJ mRNA and in the assay with Target C CJ mRNA was above 10000 nM throughout. The compound further displayed an AC50 in the assay with HTT mRNA above 10000 nM.

With `Cn1cc2cc(-c3nc4sc(N5CCNCC5)c(Cl)c4s3)cc(F)c2n1` [Compound 147], the IC50 in the assay on HTT mRNA was 100 to 1000 nM; in the assay on HTT CJ mRNA, 100 to 1000 nM; in the assay on SMN2 CJ mRNA, below 100 nM; with Target C CJ mRNA, 1000 to 10000 nM. The compound further gave an AC50 in the assay with HTT mRNA of 100 to 1000 nM.

In the case of `Cn1cc2cc(-c3cc4cn(C5CCNCC5)nc4s3)cc(F)c2n1` [Compound 122, 7-fluoro-2-methyl-5-[2-(piperidin-4-yl)thieno[2,3-c]pyrazol-5-yl]indazole], the IC50 in the assay with HTT mRNA, with HTT CJ mRNA, in the assay with SMN2 CJ mRNA and with Target C CJ mRNA was below 100 nM throughout. Moreover, the AC50 in the assay with HTT mRNA lay in the range of 100 to 1000 nM.

As for `CN1CC2(C1)CN(c1cc3sc(-c4cc(F)c5nn(C)cc5c4)nc3s1)C2` [Compound 146, 7-fluoro-2-methyl-5-(5-[6-methyl-2,6-diazaspiro[3.3]heptan-2-yl]thieno[2,3-d][1,3]thiazol-2-yl)indazole], the IC50 with HTT mRNA was 100 to 1000 nM; in the assay on HTT CJ mRNA, 100 to 1000 nM; with SMN2 CJ mRNA it was below 100 nM; in the assay with Target C CJ mRNA, 100 to 1000 nM. The AC50 with HTT mRNA lay within 100 to 1000 nM.

Consider `Cn1cc2cc(-c3cc4cn([C@@H]5CCNC[C@H]5F)nc4s3)cc(F)c2n1` [Compound 187], for which the IC50 in the assay with HTT mRNA was below 100 nM; in the assay with HTT CJ mRNA, below 100 nM; with SMN2 CJ mRNA, below 100 nM; in the assay with Target C CJ mRNA it was 100 to 1000 nM. In addition, the AC50 in the assay with HTT mRNA is below 100 nM.

As to `Cn1cc2c(O)c(-c3nc4sc(C5CCNCC5)cc4s3)ccc2n1` [Compound 231, 2-methyl-5-[5-(piperidin-4-yl)thieno[2,3-d][1,3]thiazol-2-yl]indazol-4-ol], the IC50 with HTT mRNA was 1000 to 10000 nM; with HTT CJ mRNA, 1000 to 10000 nM; with SMN2 CJ mRNA it was 100 to 1000 nM; with Target C CJ mRNA, above 10000 nM. Also, in the assay with HTT mRNA, the AC50 is 1000 to 10000 nM.

Consider `CN1CCN(c2cc3sc(-c4cc(F)c5nn(C)cc5c4)nc3s2)CC1` [Compound 141, 7-fluoro-2-methyl-5-[5-(4-methylpiperazin-1-yl)thieno[2,3-d][1,3]thiazol-2-yl]indazole], for which the IC50 in the assay on HTT mRNA is 100 to 1000 nM; in the assay on HTT CJ mRNA it was 100 to 1000 nM; in the assay on SMN2 CJ mRNA, below 100 nM; in the assay with Target C CJ mRNA it was 1000 to 10000 nM. For the same compound, the AC50 in the assay on HTT mRNA lay within 100 to 1000 nM.

For the compound `Cn1cc2cc(-c3cc4cn(C5CCNCC5)nc4s3)c(O)cc2n1` [Compound 209, 2-methyl-5-[2-(piperidin-4-yl)thieno[2,3-c]pyrazol-5-yl]indazol-6-ol], the IC50 with HTT mRNA lay in the range of 100 to 1000 nM; with HTT CJ mRNA, 100 to 1000 nM; in the assay with SMN2 CJ mRNA it was 100 to 1000 nM; with Target C CJ mRNA, 1000 to 10000 nM. Moreover, in the assay on HTT mRNA, the AC50 was in the range of 1000 to 10000 nM.

For `Cn1cc2cc(-c3nc4sc(N5CCNCC5)cc4s3)cc(F)c2n1` [Compound 134, 7-fluoro-2-methyl-5-[5-(piperazin-1-yl)thieno[2,3-d][1,3]thiazol-2-yl]indazole], the IC50 with HTT mRNA is 100 to 1000 nM; with HTT CJ mRNA, 100 to 1000 nM; in the assay on SMN2 CJ mRNA it was below 100 nM; in the assay on Target C CJ mRNA, 100 to 1000 nM. Also, the AC50 in the assay on HTT mRNA was below 100 nM.

Values taken from patent US20240239811A1, “5-(5-(PIPERIDIN-4-YL)THIENO[3,2-C]PYRAZOL-2-YL]INDAZOLE DERIVATIVES AND RELATED COMPOUNDS AS MODULATORS FOR SPLICING NUCLEIC ACIDS AND FOR THE T” (REMIX THERAPEUTICS INC., priority 2020, published 2024).
